The values below come from US20120064174A1, “METHOD FOR STIMULATING HAIR GROWTH” (LEGACY HEALTHCARE HOLDING LTD., priority 2010, published 2012).

Several values for one entry are separate records, joined by “and”; a condition that tells them apart may be missing. Equal entries are not always repeated.

The assay relates to scalp of male volunteers. Description: Double-blind placebo-controlled clinical study, hair diameter measurement by hair clipping. Format: in vivo, human. To be noted: after 32-51 days of treatment, one volunteer per row. As to the method: […] The male volunteers had been under treatment of a 5-alpha-reductase inhibitor treatment (Finasteride 1 mg) started within the last 3 months, or for the last three years. The first objective is to assess if the hair diameter of volunteers under a 5-alpha-reductase inhibitor (Finasteride 1 mg) and Cellium (TRADEMARK) GC 210 mg/mL is higher than on volunteers under a 5-alpha-reductase inhibitor (Finasteride 1 mg) and placebo only. The hair diameters were compared using a starting or initial hair diameter measurement and a post-study hair diameter measurement as quantified later herein. The second objective is to evaluate the cosmetic acceptance in the studied population. A prospective, double-blind, monocentric, randomized testing along with a placebo testing is conducted with two parallel groups. […] Information on self-assessed effectiveness, appreciation, and overall satisfaction was solicited from volunteers using a questionnaire. […] Exemplary secondary criteria include photographic documentation for qualitative purposes and also self-assessed effectiveness, appreciation, and overall satisfaction as indicated by a questionnaire given to participants. […]

Turning to `CC(C)(C)NC(=O)[C@H]1CC[C@H]2[C@@H]3CC[C@H]4NC(=O)C=C[C@]4(C)[C@H]3CC[C@]12C` [Finasteride + Placebo, Finasteride], for the setting “relative to first diameter”, the “Variation of diameter (in %)” value is 4.4% and −0.7% and −2.4%. The “Variation of diameter (μm)” value (second minus first diameter) is 2.2 μm and −0.3 μm and −1.2 μm.
